From patent US20090047221A1 (NIPRI LIMITED, priority 2004, published 2009)
Like-named read-outs stand apart in the source and are kept apart here.

Assays:
Assay in all cases: MTT assay (anti-proliferative activity)
Type in all cases: cell-based
MCF-7 = conditions: read-out: IC 50 MCF-7
Description: (§1) The MTT assay was used initially to determine the anti-proliferative activity of the test compounds. In the MTT assay a yellow thiazolyl blue tetrazolium bromide salt (MTT) is reduced, in metabolically active cells, to form insoluble purple formazan crystals which are solubilised by the addition of dimethyl sulphoxide (DMSO).
(§2) Wells containing medium only were used as blanks. Following the attachment period, cells were treated with appropriate drug concentrations (20 μl added per well). 40 mg/ml stock drug solutions, in DMSO, were stored at −20° C. and on the day of drug treatment working solutions of 4 mg/ml were prepared in medium which was further diluted to achieve final drug dilution volumes of 20 μl. Initial screening was determined over a concentration range of 1-200 μg/ml. […] Cells were exposed to drug for 96 h continual exposure (37° C., 5% CO2). Following the 96 h incubation, 50 μl MTT solution (1 g MTT/500 ml PBS) was added per well and the plates were further incubated for 4 h (37° C., 5% CO2). After incubation the MTT and medium was removed from the wells and 100 μl DMSO added per well. Plates were agitated on an orbital mixer platform (Stuart Scientific) for 10 minutes. Absorbance was measured at 570 nm on a Biotrak II (Amersham Bioscience) plate reader. IC50 values were calculated comparing control and drug treated cells.

MDA-MB-468 = conditions: read-out: IC 50 MDA-MB-468
Description: as §1, §2

MalMe3M = conditions: 96 h continual exposure, read-out: IC 50 MalMe3M
Description: as §1, §2

SkMel28 = conditions: read-out: IC 50 SkMel28
Description: as §1, §2

[1] = Homo sapiens, MCF7, 96 h continual exposure
[2] = Homo sapiens, MDA-MB-468, 96 h continual exposure
[3] = Homo sapiens, SK-MEL-28, 96 h continual exposure

| Compound | IC50 (MCF-7; [1]) [µM] | IC50 (MDA-MB-468; [2]) [µM] | IC50 (MalMe3M; Homo sapiens, Malme-3M) [µM] | IC50 (SkMel28; [3]) [µM] | IC50 (MCF-7; 96 h continual exposure) [µM] | IC50 (MDA-MB-468; 96 h continual exposure) [µM] | IC50 (MalMe3M) [µM] | IC50 (SkMel28; 96 h continual exposure) [µM] |
| --- | --- | --- | --- | --- | --- | --- | --- | --- |
| COC(=O)c1ccc2c(c1O)C(=O)OC(C)(C)C2 [ALM-71, 8-hydroxy-3,3-dimethyl-1-oxo-isochroman-7-carboxylic acid methyl ester] | 400 | 336 | > 799 | > 799 |  |  |  |  |
| CNC(=O)c1ccc2c(c1O)C(=O)OC(C)C2 (racemic) [ALM-48, Methyl Amide] |  |  |  |  | 268 | 289 | 191 | 502 |
| COc1cc2c(c(OC)c1)C(=O)OC(C)C2 (racemic) [ALM-7, 6,8-Dimethoxy-3-methyl-isochroman-1-one] | 432 | 486 | 626 | > 900 |  |  |  |  |
| COc1cccc2c1C(=O)O[C@H](C)C2 [ALM-14, (3R)-methoxy mellein] | 1040 | > 1040 | > 1040 | > 1040 |  |  |  |  |
| CCCCCCN(C)C(=O)c1ccc2c(c1O)C(=O)OC(C)C2 (racemic) [ALM-50, N-Methyl-N-Hexyl Amide] |  |  |  |  | 90.8 | 59.5 | 110 | 141 |
| CC1Cc2c(F)ccc(O)c2C(=O)O1 (racemic) [ALM-23, Racemic Para-Fluoromellein] |  |  |  |  | > 1020 | 469 | > 1020 | > 1020 |
| CC1Cc2c(Br)ccc(O)c2C(=O)O1 (racemic) [ALM-24] | 261 | 171 | 249 | 296 |  |  |  |  |
| CCCCCCOC(=O)c1ccc2c(c1O)C(=O)OC(C)C2 (racemic) [ALM-40, Hexyl Ester] |  |  |  |  | 65.3 | 42.4 | 114 | 163 |
| CCCCC/C=C\C/C=C\C/C=C\CCCCC(=O)Oc1cccc2c1C(=O)OC(C)C2 (racemic) [ALM-20, Racemic Mellein γ-Linolenyl Ester] |  |  |  |  | 342 | > 455 | > 455 | > 455 |
| CC(=O)c1ccc2c(c1O)C(=O)OC(C)C2 (racemic) [ALM-29, Racemic ortho-acetylmellein] | 341 | 341 | 341 | 363 |  |  |  |  |
| CCCCC/C=C\C/C=C\CCCCCCCC(=O)Oc1c(OC)c(OC)cc2c1C(=O)OC(C)C2 (racemic) [ALM-3, Racemic Kigelin Linoleyl Ester] |  |  |  |  | 150 | 99.9 | > 399 | > 399 |
| COC(=O)c1ccc2c(c1O)C(=O)OC(C)C2 (racemic) [ALM-34, 8-Hydroxy-3-methyl-1-oxo-isochroman-7-carboxylic acid methyl ester] | > 847 | 360 | > 847 | > 847 |  |  |  |  |
| Racemic Kigelin Oleyl Ester [ALM-2] |  |  |  |  | > 397 | > 397 | > 397 | > 397 |
| CCCCC/C=C\C/C=C\C/C=C\CCCCC(=O)Oc1c(OC)c(OC)cc2c1C(=O)OC(C)C2 (racemic) [ALM-5, Racemic Kigelin γ-Linolenyl Ester] |  |  |  |  | 20 | 50.1 | 150 | > 401 |
| CC1Cc2ccc(C(=O)OCc3ccccc3)c(O)c2C(=O)O1 (racemic) [ALM-36, Benzyl Ester] |  |  |  |  |  | 99.3 | 106 | 176 |
| CC1Cc2ccc(C(=O)NCc3ccccc3)c(O)c2C(=O)O1 (racemic) [ALM-44, Benzyl Amide] |  |  |  |  | 86.7 | 41.8 | 128 | 270 |
| COc1ccc(I)c2c1C(=O)OC(C)C2 (racemic) [ALM-28] | 594 | 211 | 484 | 283 |  |  |  |  |
| CC(C)CC(NC(=O)c1ccc2c(c1O)C(=O)OC(C)C2)C(=O)O (mixture of isomers) [ALM-56, Leucine Amide] |  |  |  |  |  | 113 | 486 | > 596 |
| CC1Cc2c(I)ccc(O)c2C(=O)O1 (racemic) [ALM-26, Racemic Para-Iodomellein] | 329 | 263 | 168 |  |  |  |  |  |
